Entries after “also recorded” stand apart in the source; their conditions may differ.

The values below come from patent US8609663B2, “Compounds for modulating TLR2” (priority 2009, dated 2013).

Data set [1] has as its system LCMV-induced NF-κB activity. The data set is described as follows: cells. The data set is classed as cell-based, human. As to conditions: for IC50: Homo sapiens, HEK293, read-out: 50% Inhibitory Dose.
In data set [2] the test system is cytokine responses in mouse primary macrophages. The data set is classed as cell-based.
Data set [3] deals with HSV-induced NF-κB activation. The data set is described as follows: HSV-induced NF-κB luciferase assay in SZ10 cells. The data set is classed as cell-based, human. To be noted: HSV-1 7134R.
Data set [4] concerns LCMV. Type of data set: cell-based, lymphocytic choriomeningitis virus (LCMV). As to conditions: 3.3 μM.
For data set [5], the system named is LCMV-induced IL-8 production. The data set is classed as cell-based, human.
Data set [6] concerns LCMV-Arm. The data set is classed as cell-based, lymphocytic choriomeningitis virus (LCMV).
Data set [7] deals with Pam2CSK4 (TLR2 ligand) and LPS (TLR4 ligand) induced cytokine production. Details: species or system C57BL/6 mice. As to conditions: mouse.
The subject of another data set is HSV-1. The data set is described as follows: HSV-1 (VP16-GFP strain) replication in Vero cells, GFP fluorescence. Type of data set: cell-based, Herpes simplex virus 1 (HSV-1). To be noted: 24 hours, dose-dependent manner.
For data set [8], the system named is TNF-α-induced NF-κB activity. The data set is classed as cell-based, human.
The test system of data set [9] is LCMV. Type of data set: cell-based, lymphocytic choriomeningitis virus (LCMV).
Data set [10] deals with Rift Valley Fever Virus (RVFV). The data set is classed as cell-based.
The test system of data set [11] is LCMV-Arm. Type of data set: in vivo, C57BL/6 mice.
For a further data set, the system named is HLA-ABC. The data set is classed as cell-based, human.
Data set [12] concerns IL-8 production in primary human monocytes. The data set is classed as cell-based.
The next data set relates to TLR2. The data set is classed as cell-based, human.
A further data set relates to Tacaribe virus (TCRV). The data set is classed as cell-based.
The nature of data set [13]: Preliminary toxicity observation in mice. To be noted: injected intravenously at 16.67 mg/kg (200 μg/mouse).
For data set [14], the system named is TNF-α-induced IL-8 production. Type of data set: cell-based, human.

With `O=C(/C=C/c1ccc(O)c(O)c1)OCCc1ccccc1` [CAPE, reference compound], the “LCMV-induced NF-κB activation” value in [1] is recorded as “effectively blocked”.
Regarding `CC1CCN(Cc2ccc(NC(=O)NCc3noc4ccccc34)cc2)CC1` [Compound 100], in data set [2], the “HSV-1 induced MCP-1 production” value is on record as “efficiently blocked”, the “HSV-1 induced RANTES production” value is listed as “efficiently blocked”, the “LCMV induced production of MCP-1” value is “significantly inhibited” and the “LCMV induced production of RANTES” value is given as “significantly inhibited”. Moreover, in data set [2], the “LPS induced MCP-1 production” value is reported as “inhibited”, the “Pam2CSK4 induced MCP-1 production” value is “inhibited”, the “Pam2CSK4 induced RANTES in vitro in macrophages” value is listed as “inhibit” and the “poly IC induced production of MCP-1” value is on record as “did not affect”. For the same compound, in [2], the “poly IC induced production of RANTES” value is listed as “did not affect”. For the same compound, in [3], the “HSV-induced NF-κB activation” value is “Blocks”. Also, the “LCMV replication in Vero cells” value in the data set with LCMV [4] is given as “significantly inhibited”. The “LCMV-induced IL-8 production” value in data set [5] is recorded as “dramatically inhibited”. The “LCMV replication in BHK-21 cells” value in the data set with LCMV-Arm [6] was “inhibited”. Further, in data set [7], the “LPS induced IL-6 induction in vivo” value is reported as “inhibits” and the “Pam2CSK4 induced IL-6 induction in vivo” value is listed as “inhibits”. In data set [7] (in vivo, iv), the “LPS induced IL-6 production in serum” value was “significantly blocked”, the “LPS induced MCP-1 production in serum” value is listed as “significantly blocked”, the “LPS-induced RANTES production in serum” value is on record as “did not affect” and the “Pam2CSK4-induced RANTES production in serum” value was “did not affect”. In data set [7] (in vivo, iv), the “Pam2CSK4 induced IL-6 production in serum” value is given as “significantly blocked” and the “Pam2CSK4 induced MCP-1 production in serum” value was “significantly blocked”. The HSV-1 replication result with HSV-1 is reported as “inhibits”. For the same compound, in [8], the “TNF-α-induced NF-κB activity” value was “did not affect”. Moreover, in the data set on LCMV [9], the “LCMV replication (expression of LCMV-NP) in SZ10 cells” value is on record as “significantly inhibited; also recorded: dramatically inhibited” and the “LCMV replication in HEK cells that did not express TLR2” value is “could also inhibit”. In addition, in data set [10], the “activity against RVFV” value is “no role”. The “levels of virus in the spleen” value with LCMV-Arm [11] (48 h post-infection, n=8, p<0.05 vs DMSO-treated or untreated mice) is given as “significantly lower”. Moreover, the “LCMV-induced inflammation in a mouse model” value in the data set with LCMV-Arm [11] (Example 13, i.v. 16.67 mg/kg (200 μg/mouse), serum MCP-1) is given as “Inhibits”. For the same compound, the “LCMV induced MCP-1 production in serum” value in the data set with LCMV-Arm [11] (single dose 400 μg/mouse (16 mg/kg), 18 h post-infection, vs DMSO) was “significant decrease”. The “LCMV induced type I IFN production” value with LCMV-Arm [11] (single dose 400 μg/mouse, 18 h post-infection) is recorded as “did not affect”. Further, the “expression of HLA-ABC” value in the data set on HLA-ABC is “did not affect; also recorded: not affected”. Besides, in data set [12], the “LCMV induced IL-8 production” value was “significant (p<0,01 by two-tailed Student's t test) reduction”, the “poly IC induced production of IL-8” value is recorded as “did not affect” and the “recombinant human TNF-α induced production of IL-8” value was “did not affect”. Also, in data set [1], the “% Inhibition” value was found to be 80%; the “LCMV-induced NF-κB activity” value is “dramatically inhibited”; the “LCMV-induced NF-κB activity and cytokine response” value is “specifically inhibit”; the IC50 stood at 1 µM. In addition, in the data set with TLR2, the “LCMV-induced enhanced expression of TLR2” value is “specifically prevented” and the “TNF-α-induced expression of TLR2” value is “did not affect”. In the data set with Tacaribe virus (TCRV), the “replication and production of TCRV” value was “can inhibit”. Also, the “toxic effect in mice” value in [13] is “no apparent toxic effect”. The “TNF-α-induced IL-8 production” value in data set [14] is “did not affect”.
Turning to `Cc1ccc2onc(CNC(=O)Nc3ccc(CN4CCC(C)CC4)cc3)c2c1` [Compound 101], in data set [1], the “% Inhibition” value was 60% and the IC50 was found to be 1.6 µM.
As to `Cc1ccc2onc(CNC(=O)Nc3cccc(C(F)(F)F)c3)c2c1` [Compound 102], in data set [1], the “% Inhibition” value is on record as 27% and the IC50 is more than 6.6 µM.
The matching figures for `O=C(NCc1noc2ccccc12)Nc1cccc(Cl)c1` [Compound 103]: 26% and more than 6.6 µM.
The like results for `COc1cccc(NC(=O)NCc2noc3ccccc23)c1` [Compound 105] were, in that order, 20% and more than 6.6 µM.
For `COC(=O)c1ccc(NC(=O)NCc2noc3ccccc23)cc1` [Compound 106], in data set [1], the “% Inhibition” value stood at 75% and the IC50 was 1.6 µM.
On to `CC1CCN(Cc2ccc(NC(=O)Nc3cccs3)cc2)CC1` [Compound 107], for which, in data set [1], the “% Inhibition” value was 47% and the IC50 was found to be 3 µM.
Consider `CC1CCN(Cc2ccc(NC(=O)Nc3cn(C)c(=O)c4ccccc34)cc2)CC1` [Compound 108], for which, in data set [1], the “% Inhibition” value is 39% and the IC50 is more than 6.6 µM.
The like results for `Cc1ccc2onc(CNC(=O)Nc3ccccc3N3CCN(C)CC3)c2c1` [Compound 109] were, in that order, 39% and more than 6.6 µM.
With `O=C(NCCc1ccccc1)c1nnc(-c2cccnc2)o1` [Compound 110], in data set [1], the “% Inhibition” value is given as 40% and the IC50 is more than 6.6 µM.
Take `COc1cc(CCNC(=O)c2nnc(-c3cccnc3)o2)cc(OC)c1` [Compound 112]: in data set [1], the “% Inhibition” value is on record as 65% and the IC50 worked out at 0.4 µM.
Regarding `CCc1ccc(CCNC(=O)c2nnc(-c3cccnc3)o2)cc1` [Compound 113], in data set [1], the “% Inhibition” value turned out to be 30% and the IC50 was more than 6.6 µM.
Regarding `O=C(NCCc1ccc(O)cc1)c1nnc(-c2cccnc2)o1` [Compound 114], in data set [1], the “% Inhibition” value is given as 31% and the IC50 is more than 6.6 µM.
The like results for `O=C(NCCc1ccc(O)c(O)c1)c1nnc(-c2cccnc2)o1` [Compound 115] were, in that order, 40% and more than 6.6 µM.
The like results for `O=C(NCCc1ccc(-c2ccccc2)cc1)c1nnc(-c2cccnc2)o1` [Compound 116] were, in that order, 50% and 0.8 µM.
The matching figures for `COc1ccc(CCC(C)NC(=O)c2nnc(-c3cccnc3)o2)cc1` (centres unmarked) [Compound 117]: 27% and more than 6.6 µM.
With `O=C(NCCc1cccc(Cl)c1)c1nnc(-c2cccnc2)o1` [Compound 118], in [1], the “% Inhibition” value stood at 50% and the IC50 amounted to 3.3 µM.
On to `CCOc1ccc(CCNC(=O)c2nc(-c3cccnc3)no2)cc1` [Compound 120], for which, in data set [1], the “% Inhibition” value was 75%; the “LCMV-induced NF-κB activity and cytokine response” value is “specifically inhibit”; the IC50 turned out to be 0.8 µM.
On to `O=C(NCc1cccnc1)c1ccc(CSCc2cccc(F)c2)o1` [Compound 121], for which, in data set [1], the “% Inhibition” value is recorded as 60%; the “LCMV-induced NF-κB activity and cytokine response” value was “specifically inhibit”; the IC50 is 0.8 µM.
As for `O=C(COCc1cc(-c2ccco2)on1)Nc1cccnc1` [Compound 122], in data set [2], the “Pam2CSK4 induced RANTES in vitro in macrophages” value was “inhibit”. Further, in data set [1], the “% Inhibition” value came out at 50%; the “LCMV-induced NF-κB activity and cytokine response” value is reported as “specifically inhibit”; the IC50 is 3.3 µM.
With `O=C(CCS(=O)(=O)c1nc(-c2ccc3c(c2)OCO3)cc(C(F)(F)F)n1)Nc1ccc(OC(F)(F)F)cc1` [Compound 125], in [1], the “% Inhibition” value is reported as 60%; the “LCMV-induced NF-κB activity and cytokine response” value is on record as “specifically inhibit”; the IC50 amounted to 0.8 µM.
The like results for `COc1ccc(C2C3=C(CCCC3=O)Nc3[nH]nc(-c4ccc(Cl)cc4)c32)cc1OC` (centres unmarked) [Compound 132] were, in that order, 75%, “specifically inhibit” and 0.8 µM.
Regarding `O=C1CC(c2ccc(F)cc2)CC2=C1C=Nc1ccccc1N2` (centres unmarked) [Compound 133], in data set [1], the “% Inhibition” value is recorded as 60%; the “LCMV-induced NF-κB activity and cytokine response” value was “specifically inhibit”; the IC50 was 0.8 µM.
In the case of `O=C(CN(C1=NC2CS(=O)(=O)CC2S1)c1ccc(F)cc1)Nc1ccccc1C(F)(F)F` (centres unmarked) [Compound 134], in data set [1], the “% Inhibition” value turned out to be 50%; the “LCMV-induced NF-κB activity and cytokine response” value is reported as “specifically inhibit”; the IC50 turned out to be 1.6 µM.
For the compound `O=C(Nc1cccnc1)c1ccc(NC(=O)C2OCCc3ccccc32)cc1` (centres unmarked) [Compound 135], in [1], the “% Inhibition” value is recorded as 60%; the “LCMV-induced NF-κB activity and cytokine response” value is “specifically inhibit”; the IC50 is 0.8 µM.
Turning to `COc1cc(/C=C/C(=O)CC(=O)/C=C/c2ccc(O)c(OC)c2)ccc1O` [Curcumin, reference compound], the “LCMV-induced NF-κB activation” value in data set [1] was “effectively blocked”.
As to `C=C1C(=O)O[C@@H]2C[C@@H](C)[C@@H]3C=CC(=O)[C@@]3(C)[C@@H](O)[C@H]12` [Helenalin, reference compound], in data set [1], the “LCMV-induced NF-κB activation” value is “effectively blocked”.
With `CC(C)[C@]12O[C@H]1[C@@H]1O[C@]13[C@]1(O[C@H]1C[C@H]1C4=C(CC[C@@]13C)C(=O)OC4)[C@@H]2O` [Triptolide, reference compound], in data set [1], the “LCMV-induced NF-κB activation” value is given as “effectively blocked”.

One may read the % Inhibition as the percentage by which the read-out fell short of the control.
